This is an account of results in PubChem BioAssay (NCI).

Some test systems named below: CAKI-1 renal; HOP-62 NSCLC; HOP-92 NSCLC; NCI-H226 lung; NCI-H23 lung; NCI/ADR-RES ovarian; OVCAR-8 ovarian; SF-295 CNS; SK-MEL-2 melanoma; UACC-257 melanoma.
What all share (experiment): growth of human tumour cells (NCI), 48 h

Molecules are shown by their SMILES. Where “and” joins values, the source holds several entries; their conditions need not be identical. Identical values can stand only once.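 Grown in 96-well plates, cells were treated for 48 hours with each compound at five concentrations. Insufficient inhibition: endpoint recorded as highest concentration tested. GI50: concentration for 50% inhibition of growth. TGI marks complete inhibition of growth.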

In the case of `O=c1[nH]c2cc(O)ccc2n2cc3c(F)cccc3c12`, the GI50 with CAKI-1 renal was 0.903 µM; in the test with HOP-62 NSCLC it was 0.847 µM; in the test with HOP-92 NSCLC, 3.41 µM; with NCI-H226 lung, 2.04 µM; with NCI-H23 lung, 3.86 µM; in the test with NCI/ADR-RES ovarian, 0.698 µM. The GI50 was 3.85 µM in the test with OVCAR-8 ovarian, 2.85 µM in the test on SF-295 CNS, above 21.2 µM with SK-MEL-2 melanoma and 31.9 µM with UACC-257 melanoma. The TGI in the test with CAKI-1 renal, in the test with HOP-62 NSCLC, in the test with HOP-92 NSCLC, in the test on NCI-H226 lung, with NCI-H23 lung and in the test on NCI/ADR-RES ovarian was above 100 µM throughout. The TGI in the test on OVCAR-8 ovarian, in the test on SF-295 CNS, with SK-MEL-2 melanoma and in the test on UACC-257 melanoma was above 100 µM in each case.
Consider `O=C(CN=Cc1cccs1)CSC(c1ccccc1)c1ccccc1`, for which the GI50 is 24.9 µM in the test with CAKI-1 renal; 34 µM in the test on HOP-62 NSCLC; 20.7 µM with HOP-92 NSCLC; 24 µM with NCI-H226 lung; 29.2 µM with NCI-H23 lung; 24.9 µM in the test with NCI/ADR-RES ovarian. Besides, the GI50 in the test on OVCAR-8 ovarian is 22.6 µM; in the test with SF-295 CNS, 35.1 µM; with SK-MEL-2 melanoma, 19 µM; in the test with UACC-257 melanoma, 22.1 µM. For the same compound, the TGI is 67.1 µM in the test with CAKI-1 renal; above 100 µM in the test with HOP-62 NSCLC; 51.1 µM in the test with HOP-92 NSCLC; 66 µM with NCI-H226 lung; above 100 µM in the test with NCI-H23 lung; 88.8 µM in the test on NCI/ADR-RES ovarian. In addition, the TGI in the test with OVCAR-8 ovarian is 55.5 µM; in the test with SF-295 CNS, above 100 µM; in the test on SK-MEL-2 melanoma, 34.8 µM; in the test on UACC-257 melanoma, 48 µM.
Regarding `CCN(CC)CCOc1ccc(C2=C(c3ccccc3)CCc3cc(OC)ccc32)cc1`, the GI50 was 2.18 µM in the test with CAKI-1 renal; 3.08 µM in the test with HOP-62 NSCLC; 3.64 µM with HOP-92 NSCLC; 3.07 µM in the test with NCI-H226 lung; 2.9 µM in the test on NCI-H23 lung; 3.17 µM in the test on NCI/ADR-RES ovarian. In addition, the GI50 in the test with OVCAR-8 ovarian is 3.15 µM; with SF-295 CNS, 1.59 µM; in the test on SK-MEL-2 melanoma, 2.15 µM; in the test on UACC-257 melanoma it was 1.81 µM. Besides, the TGI amounted to 5.86 µM in the test on CAKI-1 renal; 9.6 µM in the test with HOP-62 NSCLC; 10.9 µM in the test on HOP-92 NSCLC; 12.6 µM in the test with NCI-H226 lung; 11.3 µM in the test with NCI-H23 lung; 12.7 µM in the test with NCI/ADR-RES ovarian. In addition, the TGI in the test on OVCAR-8 ovarian is 10.5 µM; with SF-295 CNS, 3.27 µM; in the test on SK-MEL-2 melanoma, 4.67 µM; in the test with UACC-257 melanoma, 3.6 µM.
Turning to `CCOP(=O)(OCC)C(F)(F)CC1CCCCC1`, the TGI in the test on CAKI-1 renal, in the test on HOP-62 NSCLC, in the test with HOP-92 NSCLC, in the test on NCI-H226 lung, in the test on NCI-H23 lung and in the test on NCI/ADR-RES ovarian was above 10 µM in each case. The TGI in the test with OVCAR-8 ovarian, with SF-295 CNS, with SK-MEL-2 melanoma and in the test on UACC-257 melanoma was above 10 µM throughout.
For the compound `CCCOc1c2cc(COC3OC(CO)C(O)C(O)C3O)cc1Cc1cc(COC3OC(CO)C(O)C(O)C3O)cc(c1OCCC)Cc1cc(COC3OC(CO)C(O)C(O)C3O)cc(c1OCCC)Cc1cc(COC3OC(CO)C(O)C(O)C3O)cc(c1OCCC)C2` (stereo not drawn), the GI50 with CAKI-1 renal is > 100 µM and 25 µM; with HOP-62 NSCLC it was > 100 µM and 29.2 µM; with NCI-H226 lung it was 59.2 µM and > 100 µM and 17.7 µM; with NCI-H23 lung it was 69.6 µM and 71 µM and 21.2 µM; with OVCAR-8 ovarian, > 100 µM and 18.4 µM; in the test on SF-295 CNS it was 67.5 µM and 84.6 µM and 17.4 µM. For the same compound, the GI50 is 57 µM and 96.4 µM and 15.7 µM with SK-MEL-2 melanoma; 67.1 µM and > 100 µM and 33.6 µM in the test on UACC-257 melanoma. The TGI with CAKI-1 renal is > 100 µM and 64.8 µM; with HOP-62 NSCLC, > 100 µM and 93.7 µM; in the test with HOP-92 NSCLC, above 100 µM; in the test on NCI-H226 lung it was > 100 µM and 40.1 µM; in the test on NCI-H23 lung it was > 100 µM and 52.8 µM; with NCI/ADR-RES ovarian it was above 100 µM. The TGI in the test with OVCAR-8 ovarian is > 100 µM and 42.6 µM; in the test on SF-295 CNS it was > 100 µM and 35.7 µM; with SK-MEL-2 melanoma, > 100 µM and 35.6 µM; in the test on UACC-257 melanoma, above 100 µM.
In the case of `O=C(Cc1nc2ccc([N+](=O)[O-])cc2[nH]c1=O)C(=O)Nc1cc(Cl)c(Cl)cc1Cl`, the TGI with CAKI-1 renal, in the test on HOP-62 NSCLC, with HOP-92 NSCLC, in the test with NCI-H226 lung, with NCI-H23 lung and in the test on NCI/ADR-RES ovarian was above 100 µM in each case. The TGI in the test on OVCAR-8 ovarian, in the test with SF-295 CNS, in the test with SK-MEL-2 melanoma and in the test on UACC-257 melanoma was above 100 µM throughout.
As to `COC(=O)C1=C(O)C(C(=O)OC)[C@@]2(O)[C@@H](C(=O)OC)C(c3ccc(OC(=O)C(CC(C)C)NC(C)=O)cc3)C[C@@H]1[C@@H]2C(=O)OC` (stereo partly drawn), the GI50 was above 100 µM in the test on CAKI-1 renal; 31.2 µM in the test on HOP-62 NSCLC; 39.5 µM in the test with HOP-92 NSCLC; 43 µM in the test with NCI-H226 lung; 36.9 µM in the test on NCI-H23 lung; 39 µM in the test with NCI/ADR-RES ovarian. Besides, the GI50 in the test with OVCAR-8 ovarian is 43.7 µM; in the test with SF-295 CNS, 74.8 µM; in the test on SK-MEL-2 melanoma, 81.9 µM; with UACC-257 melanoma, above 100 µM. Moreover, the TGI with CAKI-1 renal, in the test with HOP-62 NSCLC, in the test with HOP-92 NSCLC, in the test with NCI-H226 lung, in the test with NCI-H23 lung and in the test on NCI/ADR-RES ovarian was above 100 µM throughout. Also, the TGI in the test with OVCAR-8 ovarian, in the test with SF-295 CNS, in the test with SK-MEL-2 melanoma and with UACC-257 melanoma was above 100 µM each time.
`CCCCCCCCCCCCCCCC(=O)OCC1OC(n2ccc(N)nc2=O)C(O)C1O` (stereo not drawn): the TGI in the test on CAKI-1 renal was above 100 µM; in the test on HOP-62 NSCLC, above 66.6 µM; in the test on HOP-92 NSCLC, above 100 µM; in the test with NCI-H226 lung, above 100 µM; in the test on NCI-H23 lung, above 41.6 µM; with NCI/ADR-RES ovarian, above 100 µM. In addition, the TGI in the test with OVCAR-8 ovarian, in the test with SF-295 CNS, in the test on SK-MEL-2 melanoma and in the test with UACC-257 melanoma was above 100 µM each time.
As for `Cc1csc(Nc2nc(-c3cccc(Cl)c3)nc(C(Cl)(Cl)Cl)n2)n1`, the GI50 with CAKI-1 renal is 3.07 µM; in the test on HOP-62 NSCLC, 1.27 µM; in the test on HOP-92 NSCLC it was 0.801 µM; in the test on NCI-H226 lung, above 33.3 µM; in the test on NCI-H23 lung, 23.7 µM; in the test on NCI/ADR-RES ovarian, 4.15 µM. Moreover, the GI50 is 7.77 µM in the test on OVCAR-8 ovarian, 1.29 µM with SF-295 CNS, 25.8 µM in the test with SK-MEL-2 melanoma and 3.53 µM in the test on UACC-257 melanoma. In addition, the TGI with CAKI-1 renal is above 33.3 µM; in the test with HOP-62 NSCLC, 7.99 µM; in the test with HOP-92 NSCLC, 3.21 µM; with NCI-H226 lung it was above 33.3 µM; with NCI-H23 lung, above 33.3 µM; in the test with NCI/ADR-RES ovarian it was above 33.3 µM. Further, the TGI in the test with OVCAR-8 ovarian is above 33.3 µM; with SF-295 CNS, 9.89 µM; in the test with SK-MEL-2 melanoma, above 33.3 µM; in the test on UACC-257 melanoma, 28 µM.
Regarding `CC(C)(C)c1ccc(S(=O)(=O)N[C@H]2CC[C@H]3[C@@H]4CCc5cc(O)ccc5[C@H]4CC[C@]23C)cc1`, the GI50 was 2.28 µM in the test on CAKI-1 renal; 2.07 µM in the test with HOP-62 NSCLC; 1.53 µM in the test on HOP-92 NSCLC; 1.75 µM in the test on NCI-H226 lung; 2.03 µM in the test with NCI-H23 lung; 2.23 µM with NCI/ADR-RES ovarian. Besides, the GI50 in the test with OVCAR-8 ovarian is 2.02 µM; in the test on SF-295 CNS it was 1.66 µM; with SK-MEL-2 melanoma it was 2.45 µM; in the test on UACC-257 melanoma, 2.45 µM. For the same compound, the TGI stood at 6.26 µM with CAKI-1 renal; 3.98 µM with HOP-62 NSCLC; 4.2 µM with HOP-92 NSCLC; 3.51 µM with NCI-H226 lung; 4.28 µM in the test on NCI-H23 lung; 5.21 µM with NCI/ADR-RES ovarian. Also, the TGI with OVCAR-8 ovarian worked out at 4.59 µM; in the test with SF-295 CNS, 3.16 µM; in the test with SK-MEL-2 melanoma, 4.89 µM; in the test on UACC-257 melanoma it was 6.78 µM.
Turning to `CN1c2ccccc2C(=O)Nc2cnc(Cl)nc21`, the TGI with CAKI-1 renal, in the test with HOP-62 NSCLC, in the test on HOP-92 NSCLC, with NCI-H226 lung, with NCI-H23 lung and with NCI/ADR-RES ovarian was above 100 µM throughout. Besides, the TGI with OVCAR-8 ovarian, with SF-295 CNS, in the test on SK-MEL-2 melanoma and in the test on UACC-257 melanoma was above 100 µM each time.
Regarding `Cc1ccc(OCCCCCCNCCO)c(C)c1`, the GI50 in the test on CAKI-1 renal is 16.2 µM; in the test with HOP-62 NSCLC it was 15 µM; with HOP-92 NSCLC, 2.36 µM; with NCI-H226 lung, 15.1 µM; in the test on NCI-H23 lung, 15.5 µM; with NCI/ADR-RES ovarian it was 16.3 µM. Besides, the GI50 was 17.8 µM in the test with OVCAR-8 ovarian, 17.8 µM with SF-295 CNS, 19.8 µM in the test on SK-MEL-2 melanoma and 14.2 µM with UACC-257 melanoma. Further, the TGI in the test with CAKI-1 renal stood at 32.2 µM; in the test with HOP-62 NSCLC, 30.8 µM; in the test with HOP-92 NSCLC it was 13.4 µM; in the test on NCI-H226 lung, 32.9 µM; in the test with NCI-H23 lung it was 35.4 µM; with NCI/ADR-RES ovarian it was 37.1 µM. For the same compound, the TGI is 35.9 µM with OVCAR-8 ovarian, 39 µM with SF-295 CNS, 37.6 µM in the test on SK-MEL-2 melanoma and 29.6 µM in the test on UACC-257 melanoma.
